Results reported in patent US20230081426A1, “COMPOUNDS AND METHODS FOR KRAS MODULATION AND INDICATIONS THEREFOR” (Plexxikon Inc., priority 2020, published 2023).
Read-outs that look alike come from different tables or passages of the source.

Columns and labels:
[1] = target: T1, G12D-mutant human KRAS (amino acid residues 1-188) (Homo sapiens, UniProt P01116, G12D); assay: KRAS Binding Disruption Assay (AlphaScreen; biotinylated KRpep-2d analogue or RAF1-RBD), G12D; details: for IC50: geometric mean, read-out: KRAS GMean IC50 (uM) MUTATION: G12D
T1 construct: G12D or G12C-mutant human KRAS (amino acid residues 1-188) with FLAG tag; made in house; host or cells: E. coli
T1 sequence (P01116 1-188 isoform P01116-2 G12D): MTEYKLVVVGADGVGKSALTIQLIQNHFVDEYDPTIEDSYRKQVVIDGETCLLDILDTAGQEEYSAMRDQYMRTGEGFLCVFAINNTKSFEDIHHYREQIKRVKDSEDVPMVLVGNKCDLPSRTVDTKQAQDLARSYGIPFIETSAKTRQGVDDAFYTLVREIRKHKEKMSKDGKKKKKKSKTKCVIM
Summary of the method: (§1)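 Displacement format with mutant KRAS, biotinylated KRpep-2d analogue or RAF1-RBD (5-20 nM each) at pH 7.5 with 5 mM MgCl2.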

[2] = target: T2, G12C-mutant human KRAS (amino acid residues 1-188) (Homo sapiens, UniProt P01116, G12C); assay: KRAS Binding Disruption Assay (AlphaScreen; biotinylated KRpep-2d analogue or RAF1-RBD), G12C; details: geometric mean, read-out: KRAS GMean IC50 (uM) MUTATION: G12C
T2 construct: G12D or G12C-mutant human KRAS (amino acid residues 1-188) with FLAG tag; made in house; host or cells: E. coli
T2 sequence (P01116 1-188 isoform P01116-2 G12C): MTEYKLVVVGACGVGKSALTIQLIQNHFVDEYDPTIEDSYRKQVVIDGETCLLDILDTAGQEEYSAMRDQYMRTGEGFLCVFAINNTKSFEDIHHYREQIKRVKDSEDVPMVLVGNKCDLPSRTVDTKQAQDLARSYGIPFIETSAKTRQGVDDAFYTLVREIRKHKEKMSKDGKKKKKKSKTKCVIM
Summary of the method: as §1

Compound	IC50 ([1]; KRAS G12D) [µM]	IC50 [2] [µM]	Improved KRAS G12D Biochemical Potency of Compounds with Bridged vs Non-Bridged R^1 Groups ([1]; Table 4, fold more potent than the compared compound of WO 2017/172979)	IC50 ([1]; Table 4, comparison with compounds of WO 2017/172979) [µM]
COc1ccc(CNCCc2nc(N3C[C@H]4CC[C@@H](C3)N4)c3ccc(-c4cc(O)cc5ccccc45)c(F)c3n2)cc1 [P-0772, 4-(4-((1R,5S)-3,8-diazabicyclo[3.2.1]octan-3-yl)-8-fluoro-2-(2-((4-methoxybenzyl)amino)ethyl)quinazolin-7-yl)naphthalen-2-ol]	0.0001 to 10	10 to 100	–	–
Oc1cc(-c2ccc3c(N4C[C@H]5CC[C@@H](C4)N5)nc(CNC4CC4)nc3c2)c2ccccc2c1 [P-0673, 4-(4-((1R,5S)-3,8-diazabicyclo[3.2.1]octan-3-yl)-2-((cyclopropylamino)methyl)quinazolin-7-yl)naphthalen-2-ol]	0.0001 to 10	10 to 100	–	–
COC(C)(C)COc1nc(N2C[C@H]3CC[C@@H](C2)N3)c2ccc(-c3cc(O)cc4ccccc34)c(F)c2n1 [P-0720, 4-(4-((1R,5S)-3,8-diazabicyclo[3.2.1]octan-3-yl)-8-fluoro-2-(2-methoxy-2-methylpropoxy)quinazolin-7-yl)naphthalen-2-ol]	0.0001 to 10	10 to 100	–	–
CN1CCC[C@H]1COc1nc(N2C[C@H]3CC[C@@H](C2)N3)c2cc(F)c(-c3c[nH]c4ccc(C(F)(F)F)cc34)c(F)c2n1 [P-0757, 4-((1R,5S)-3,8-diazabicyclo[3.2.1]octan-3-yl)-6,8-difluoro-2-(((S)-1-methylpyrrolidin-2-yl)methoxy)-7-(5-(trifluoromethyl)-1H-indol-3-yl)quinazoline]	0.0001 to 10	100 to 1000	–	–
O=C1CCC(=O)N1CCOc1nc(N2C[C@H]3CC[C@@H](C2)N3)c2ccc(-c3cc(O)cc4ccccc34)c(F)c2n1 [P-0694, 1-(2-((4-((1R,5S)-3,8-diazabicyclo[3.2.1]octan-3-yl)-8-fluoro-7-(3-hydroxynaphthalen-1-yl)quinazolin-2-yl)oxy)ethyl)pyrrolidine-2,5-dione]	0.0001 to 10	10 to 100	–	–
CN(C)CCOc1nc(N2C[C@H]3CC[C@@H](C2)N3)c2ccc(-c3cc(O)cc4ccccc34)c(F)c2n1 [P-0753, 4-(4-((1R,5S)-3,8-diazabicyclo[3.2.1]octan-3-yl)-2-(2-(dimethylamino)ethoxy)-8-fluoroquinazolin-7-yl)naphthalen-2-ol]	0.0001 to 10	0.0001 to 10	–	–
Oc1cc(-c2ccc3c(N4C[C@H]5CC[C@@H](C4)N5)nc(CNC4CC(O)C4)nc3c2)c2ccccc2c1 (stereo partly drawn) [P-0670, 4-(4-((1R,5S)-3,8-diazabicyclo[3.2.1]octan-3-yl)-2-(((3-hydroxycyclobutyl)amino)methyl)quin-azolin-7-yl)naphthalen-2-ol]	0.0001 to 10	100 to 1000	–	–
CC(C)(C)OC(=O)COc1nc(N2C[C@H]3CC[C@@H](C2)N3)c2ccc(-c3cc(O)cc4ccccc34)c(F)c2n1 [P-0744, tert-butyl 2-((4-((1R,5S)-3,8-diazabicyclo[3.2.1]octan-3-yl)-8-fluoro-7-(3-hydroxynaphthalen-1-yl)quinazolin-2-yl)oxy)acetate]	0.0001 to 10	10 to 100	–	–
CN(C)CCOc1nc(N2C[C@H]3CC[C@@H](C2)N3)c2ccc(-c3cc(O)cc4ccccc34)cc2n1 [P-0023, 4-(4-((1R,5S)-3,8-diazabicyclo[3.2.1]octan-3-yl)-2-(2-(dimethylamino)ethoxy)quinazolin-7-yl)naphthalen-2-ol]	0.0001 to 10	10 to 100	P-0023 is about 57 times more potent than Compound 149 in WO 2017/172979.	0.29
NCCCN1CCC[C@H]1COc1nc(N2C[C@H]3CC[C@@H](C2)N3)c2ccc(-c3cc(O)cc4ccccc34)c(F)c2n1 [P-0675, 4-(2-(((S)-1-(3-aminopropyl)pyrrolidin-2-yl)methoxy)-4-((1R,5S)-3,8-diazabicyclo[3.2.1]octan-3-yl)-8-fluoroquinazolin-7-yl)naphthalen-2-ol]	0.0001 to 10	0.0001 to 10	–	–
CN1CCC[C@H]1COc1nc(N2C[C@H]3CC[C@@H](C2)N3)c2ccc(-c3nccc4cccc(C(F)(F)F)c34)c(F)c2n1 [P-0762, 4-((1R,5S)-3,8-diazabicyclo[3.2.1]octan-3-yl)-8-fluoro-2-(((S)-1-methylpyrrolidin-2-yl)methoxy)-7-(8-(trifluoromethyl)isoquinolin-1-yl)quinazoline]	10 to 100	10 to 100	–	–
CN1CCC[C@H]1COc1nc(N2C[C@H]3CC[C@@H](C2)N3)c2cc(F)c(-c3c[nH]c4ccc(F)cc34)c(F)c2n1 [P-0726, 4-((1R,5S)-3,8-diazabicyclo[3.2.1]octan-3-yl)-6,8-difluoro-7-(5-fluoro-1H-indol-3-yl)-2-(((S)-1-methylpyrrolidin-2-yl)methoxy)quinazoline]	0.0001 to 10	10 to 100	–	–
Oc1cc(-c2ccc3c(N4CC5CCC(C4)N5)nc(CN[C@@H]4CCC[C@H]4O)nc3c2)c2ccccc2c1 [P-0672, 4-(4-((1R,5S)-3,8-diazabicyclo[3.2.1]octan-3-yl)-2-((((1R,2R)-2-hydroxycyclopentyl)amino)methyl)quin-azolin-7-yl)naphthalen-2-ol]	0.0001 to 10	10 to 100	–	–
CN1CCC[C@H]1COc1nc(N2C[C@H]3CC[C@@H](C2)N3)c2cc(F)c(-c3c[nH]c4cc(Cl)ccc34)c(F)c2n1 [P-0796, 4-((1R,5S)-3,8-diazabicyclo[3.2.1]octan-3-yl)-7-(6-chloro-1H-indol-3-yl)-6,8-difluoro-2-(((S)-1-methylpyrrolidin-2-yl)methoxy)quinazoline]	0.0001 to 10	100 to 1000	–	–

Second part, led by results:

IC50 ([1]; KRAS G12D) [µM]	IC50 [2] [µM]	Compound	Improved KRAS G12D Biochemical Potency of Compounds with Bridged vs Non-Bridged R^1 Groups ([1]; Table 4, fold more potent than the compared compound of WO 2017/172979)	IC50 ([1]; Table 4, comparison with compounds of WO 2017/172979) [µM]
0.0001 to 10	0.0001 to 10	Oc1cc(-c2ccc3c(N4C[C@H]5CC[C@@H](C4)N5)nc(N4CC(O)(C5CC5)C4)nc3c2F)c2ccccc2c1 [P-0636, 1-(4-((1R,5S)-3,8-diazabicyclo[3.2.1]octan-3-yl)-8-fluoro-7-(3-hydroxynaphthalen-1-yl)quinazolin-2-yl)-3-cyclopropylazetidin-3-ol]	–	–
0.0001 to 10	10 to 100	CC1(O)CN(c2nc(N3C[C@H]4CC[C@@H](C3)N4)c3ccc(-c4cc(O)cc5ccccc45)c(F)c3n2)C1 [P-0792, 1-(4-((1R,5S)-3,8-diazabicyclo[3.2.1]octan-3-yl)-8-fluoro-7-(3-hydroxynaphthalen-1-yl)quinazolin-2-yl)-3-methylazetidin-3-ol]	–	–
0.0001 to 10	10 to 100	CC(F)(F)COc1nc(N2C[C@H]3CC[C@@H](C2)N3)c2ccc(-c3cc(O)cc4ccccc34)c(F)c2n1 [P-0748, 4-(4-((1R,5S)-3,8-diazabicyclo[3.2.1]octan-3-yl)-2-(2,2-difluoropropoxy)-8-fluoroquinazolin-7-yl)naphthalen-2-ol]	–	–
0.0001 to 10	10 to 100	CC(C)(COc1nc(N2C[C@H]3CC[C@@H](C2)N3)c2ccc(-c3cc(O)cc4ccccc34)c(F)c2n1)C(=O)O [P-0647, 3-((4-((1R,5S)-3,8-diazabicyclo[3.2.1]octan-3-yl)-8-fluoro-7-(3-hydroxynaphthalen-1-yl)quinazolin-2-yl)oxy)-2,2-dimethylpropanoic acid]	–	–
0.0001 to 10	10 to 100	OCCCOc1nc(N2C[C@H]3CC[C@@H](C2)N3)c2ccc(-c3cc(O)cc4ccccc34)c(F)c2n1 [P-0652, 4-(4-((1R,5S)-3,8-diazabicyclo[3.2.1]octan-3-yl)-8-fluoro-2-(3-hydroxypropoxy)quinazolin-7-yl)naphthalen-2-ol]	–	–
0.0001 to 10	10 to 100	NC(=O)COc1nc(N2C[C@H]3CC[C@@H](C2)N3)c2ccc(-c3cc(O)cc4ccccc34)c(F)c2n1 [P-0732, 2-((4-((1R,5S)-3,8-diazabicyclo[3.2.1]octan-3-yl)-8-fluoro-7-(3-hydroxynaphthalen-1-yl)quinazolin-2-yl)oxy)acetamide]	–	–
100 to 1000	100 to 1000	CC1(COc2nc(N3C[C@H]4CC[C@@H](C3)N4)c3ccc(-c4cc(O)cc5ccccc45)c(F)c3n2)COC1 [P-0785, 4-(4-((1R,5S)-3,8-diazabicyclo[3.2.1]octan-3-yl)-8-fluoro-2-((3-methyloxetan-3-yl)methoxy)quinazolin-7-yl)naphthalen-2-ol]	–	–
0.0001 to 10	10 to 100	O=C(O)CCOc1nc(N2C[C@H]3CC[C@@H](C2)N3)c2ccc(-c3cc(O)cc4ccccc34)c(F)c2n1 [P-0743, 3-((4-((1R,5S)-3,8-diazabicyclo[3.2.1]octan-3-yl)-8-fluoro-7-(3-hydroxynaphthalen-1-yl)quinazolin-2-yl)oxy)propanoic acid]	–	–
0.0001 to 10	100 to 1000	Oc1cc(-c2ccc3c(N4C[C@H]5CC[C@@H](C4)N5)nc(N4C[C@@H](O)[C@@H](O)C4)nc3c2F)c2ccccc2c1 [P-0687, (3S,4R)-1-(4-((1R,5S)-3,8-diazabicyclo[3.2.1]octan-3-yl)-8-fluoro-7-(3-hydroxynaphthalen-1-yl)quinazolin-2-yl)pyrrolidine-3,4-diol]	–	–
0.0001 to 10	100 to 1000	CC(C)(O)C1CN(c2nc(N3C[C@H]4CC[C@@H](C3)N4)c3ccc(-c4cc(O)cc5ccccc45)c(F)c3n2)C1 [P-0683, 4-(4-((1R,5S)-3,8-diazabicyclo[3.2.1]octan-3-yl)-8-fluoro-2-(3-(2-hydroxypropan-2-yl)azetidin-1-yl)quinazolin-7-yl)naphthalen-2-ol]	–	–
0.0001 to 10	10 to 100	Oc1cc(-c2ccc3c(N4C[C@H]5CC[C@@H](C4)N5)nc(OCC4(O)CCC4)nc3c2F)c2ccccc2c1 [P-0722, 4-(4-((1R,5S)-3,8-diazabicyclo[3.2.1]octan-3-yl)-8-fluoro-2-((1-hydroxycyclobutyl)methoxy)quinazolin-7-yl)naphthalen-2-ol]	–	–
